Reference: patent publication US20250017964A1, “ENGINEERING OR INDUCING PDGF AND/OR PDGFR SIGNALING TO ENHANCE NK CELL THERAPY” (City of Hope, priority 2021, published 2025)

Test system: NOD/SCID/IL-2rg (NSG) mice
Assay: PDGF-D injection after NK cell adoptive transfer into NSG mice, annexin V and Ki-67
Settings: in vivo, PDGF-D 1 μg per mouse i.v. daily for 3 days
Procedure: FIGS. 6A-6M. IL-15 maintains NK cell survival through a PDGF-D-PDGFRβ autocrine pathway. (A) 1×10^5 primary NK cells were cultured in vitro for 7 days in the presence of IL-15 (10 ng/ml) and PDGF-D (50 ng/ml). Cells were counted on days 3, 5, and 7 (n=3). (B) 1×10^5 primary NK cells were cultured in vitro for 7 days in the presence of IL-15 (10 ng/ml) and anti-PDGF-D (10 βg/ml) or control IgG (10 μg/ml). Cells were counted on days 3, 5, and 7 (n=3). […] The cells were counted by trypan exclusion assay on days 3, 5, and 7 (n=3). (D) 1×10^5 primary NK cells were cultured in vitro for 7 days in the presence of IL-15 (10 ng/ml) and PDGF-D (50 ng/ml) as well as anti-PDGFRβ (10 μg/ml). Cells were counted by trypan exclusion assay on days 3, 5, and 7 (n=3). (E) 1×10^5 primary NK cells were cultured in vitro for 7 days in the presence of IL-15 (10 ng/ml) and PDGF-D (50 ng/ml) as well as anti-NKp44 (10 μg/ml). Cells were counted by trypan exclusion assay on days 3, 5, and 7 (n=3). (F-I) Primary NK cells were cultured in the presence of IL-15 (10 ng/ml) and PDGF-D (50 ng/ml) as well as anti-NKp44 (10 μg/ml) or anti-PDGFRβ (10 Kg/ml) for 48 h. The cultured NK cells were then harvested for immunoblotting to determine protein levels of BCL-2, BCL-XL, and MCL-1 (n=3). […] Cell apoptosis and proliferation were analyzed by annexin V staining (J) and Ki-67 staining (K), respectively. […]

PDGF-D: recombinant human PDGF-DD (1159-SB-025), R&D Systems
NK cell proliferation (Ki67): did not affect NK cell proliferation
apoptosis of PDGFRβ^+ NK cells (annexin V) (peripheral blood): inhibited apoptosis
